Laboratory results taken from patent US4912227A, “1,2,8,8A-tetrahydrocyclopropa(c)pyrrolo(3,2-e)-indol-4-(5H)-ones and related compounds” (The Upjohn Company, priority 1985, dated 1990).
Converted amounts (≈) assume the structure as drawn.

What was measured:
murine L1210 tumor cells = experiment: cytotoxic activity against murine L1210 tumor cells in suspension (3-day cell growth); format: cell-based; conditions: for IC50 / IC90: Mus musculus, 72 h; for IC50: read-out: L-1210 (3-Day Cell Growth) ID50; for IC90: read-out: L-1210 (3-Day Cell Growth) ID90
Method: Many of the compounds of the subject invention have useful cytotoxic activity against murine L1210 tumor cells in suspension, which is a standard model for such tests before the compounds are tested in humans. […] Following is a table showing the results of testing various compounds against L1210 in suspension using standard, well-known procedures. The compounds are identified by an internal designation called "U-" number. The structural identify of the "U-" numbered compounds is shown in Chart I.

Sarcina lutea = experiment: antimicrobial activity
Proteus vulgaris = experiment: antimicrobial activity
[1] = system: Salmonella schottmeulerri; experiment: antimicrobial activity
Escherichia coli = experiment: antimicrobial activity
Staphylococcus aureus = experiment: antimicrobial activity
Bacillus subtilis = experiment: antimicrobial activity
[2] = system: Saccharomyces pastorianus; experiment: antimicrobial activity
Mycobacterium avium = experiment: antimicrobial activity
Klebsiella pneumonia = experiment: antimicrobial activity
Penicillium oxalicum = experiment: antimicrobial activity
P388 leukemia = experiment: antitumor activity in P388 leukemic mice, intraperitoneal; format: in vivo; conditions: for ILS at 0.1 mg/kg: at 0.10 mg./kg.
Source text: These murine test systems are predictive for clinically useful human antitumor agents (see, for example, A. Geldin, J. M. Vendetti, J. S. MacDonald, F. M. Muggia, J. E. Henney and V. T. DeVita, European J. Cancer, Vol. 17, pp. 129-142, 1981; J. M. Vendetti, Cancer Treatment Reports, Vol. 67, pp. 767-772, 1983; and J. M. Vendetti, R. A. Wesley, and J. Plowman, Advances in Pharmacology and Chemotherapy, Vol. 20, pp. 1-20, 1984), and it is therefore presumed that the compounds of the subject invention will be useful in the control and treatment of cancer in humans when given, for example, intravenously in doses of 0.001 to about 10 mg. per kg. of body weight per day, the exact dose depending on the age, weight and condition of the patient, and on the frequency of administration. Following is a table showing the results of testing various compounds intraperitoneally against P388 leukemic mice using standard well-known procedures (In Vivo cancer, Models, NIH Publication No. 84-2635, 1984). The structural identify of the "U-" numbered compounds is shown in Chart I. In the table %ILS refers to percent increase in life span of treated animals over controls.

M5076 ovarian sarcoma = experiment: lifespan of mice implanted with M5076 ovarian sarcoma; format: in vivo
Source text: (§1) These characteristics are advantageous for antitumor agents.

solid tumors = experiment: activity against solid tumors; set-up: species or system mice; conditions: mouse, in vivo
Source text: as §1

[3] = stability in aqueous solution; format: physicochemical
B16 melanoma = B16 melanoma implanted subcutaneously in mice, single intravenous dose; format: in vivo
Source text: as §1

Lewis carcinoma = experiment: lifespan of mice implanted with Lewis carcinoma; format: in vivo
Source text: as §1

[4] = system: human lung tumor (Lx-1 carcinoma); experiment: human lung tumor (Lx-1 carcinoma) xenograft in nude mice; format: in vivo
Source text: as §1

[5] = solubility in aqueous solution; format: physicochemical
[6] = Mus musculus, P388, ip, read-out: P388 % ILS (percent increase in life span over controls)

SMILES: Cc1c[nH]c2c1C13CC1CN(S(C)(=O)=O)C3=CC2=O (stereo not drawn) [U-62,736]
- L-1210 (3-Day Cell Growth) ID50 (murine L1210 tumor cells): 39 ng/mL
- L-1210 (3-Day Cell Growth) ID90 (murine L1210 tumor cells): 180 ng/mL

SMILES: CC(=O)N1CC2CC23C1=CC(=O)c1[nH]cc(C)c13 (stereo not drawn) [U-66,664]
- IC50 (murine L1210 tumor cells): 4.8 ng/mL (≈ 19.8 nM)
- IC90 (murine L1210 tumor cells): 18 ng/mL (≈ 74.3 nM)

SMILES: CC(=O)N1CC(COS(C)(=O)=O)c2c1cc(O)c1[nH]cc(C)c21 (stereo not drawn) [U-66,665]
- activity against Sarcina lutea (Sarcina lutea): have activity against
- activity against Proteus vulgaris (Proteus vulgaris): have activity against
- activity against Salmonella schottmeulerri [1]: have activity against
- activity against Escherichia coli (Escherichia coli): have activity against
- IC50 (murine L1210 tumor cells): 9 ng/mL (≈ 26.6 nM)
- IC90 (murine L1210 tumor cells): 32 ng/mL (≈ 94.6 nM)
- activity against Staphylococcus aureus (Staphylococcus aureus): have activity against
- activity against Bacillus subtilis (Bacillus subtilis): have activity against
- activity against Saccharomyces pastorianus [2]: have activity against
- activity against Mycobacterium avium (Mycobacterium avium): have activity against
- activity against Klebsiella pneumonia (Klebsiella pneumonia): have activity against
- activity against Penicillium oxalicum (Penicillium oxalicum): have activity against

SMILES: Cc1c[nH]c2c1C13CC1CN(C(=O)c1cc4ccccc4[nH]1)C3=CC2=O (stereo not drawn) [U-66,694, 1,2,8,8a-tetrahydro-7-methyl-2-(1H-indol-2-ylcarbonyl)cyclopropa[c]pyrrolo(3,2-c]indol-4(5H)-one]
- activity against Sarcina lutea (Sarcina lutea): have activity against
- activity against Proteus vulgaris (Proteus vulgaris): have activity against
- activity against Salmonella schottmeulerri [1]: have activity against
- activity against Escherichia coli (Escherichia coli): have activity against
- IC50 (murine L1210 tumor cells): 0.15 ng/mL (≈ 0.437 nM)
- IC90 (murine L1210 tumor cells): 0.34 ng/mL (≈ 0.99 nM)
- ILS at 0.63 mg/kg (P388 leukemia; Mus musculus, P388, ip, at 0.63 mg./kg., read-out: P388 % ILS (percent increase in life span over controls)): 164%
- activity against Staphylococcus aureus (Staphylococcus aureus): have activity against
- activity against Bacillus subtilis (Bacillus subtilis): have activity against
- activity against Saccharomyces pastorianus [2]: have activity against
- activity against Mycobacterium avium (Mycobacterium avium): have activity against
- activity against Klebsiella pneumonia (Klebsiella pneumonia): have activity against
- activity against Penicillium oxalicum (Penicillium oxalicum): have activity against

SMILES: Cc1c[nH]c2c1C13CC1CNC3=CC2=O (stereo not drawn) [U-66,777]
- IC50 (murine L1210 tumor cells): 180 ng/mL (≈ 899 nM)
- IC90 (murine L1210 tumor cells): 920 ng/mL (≈ 4590 nM)

SMILES: Cc1c[nH]c2c1C13CC1CN(C(=O)c1ccccc1)C3=CC2=O (stereo not drawn) [U-66,866, 1,2,8,8a-tetrahydro-7-methyl-2-benzoylcyclopropa[c]pyrrolo[3,2-e]indol-4(5H)-one]
- IC50 (murine L1210 tumor cells): 1.5 ng/mL (≈ 4.93 nM)
- IC90 (murine L1210 tumor cells): 4.5 ng/mL (≈ 14.8 nM)
- ILS at 12 mg/kg (P388 leukemia; Mus musculus, P388, ip, at 12 mg./kg., read-out: P388 % ILS (percent increase in life span over controls)): 71%

SMILES: COc1c(O)ccc2cc(C(=O)N3CC4CC45C3=CC(=O)c3[nH]cc(C)c35)[nH]c12 (stereo not drawn) [U-67,785, 1,2,8,8a-tetrahydro-7-methyl-2-[(6-hydroxy-7-methoxy-1H-indol-2-yl)carbonyl]cyclopropa[c]pyrrolo[3,2-e]indol-4(5H)-one]
- IC50 (murine L1210 tumor cells): 0.072 ng/mL (≈ 0.185 nM)
- IC90 (murine L1210 tumor cells): 0.19 ng/mL (≈ 0.488 nM)
- ILS at 0.06 mg/kg (P388 leukemia; Mus musculus, P388, ip, at 0.06 mg./kg., read-out: P388 % ILS (percent increase in life span over controls)): 60%

SMILES: COc1ccc2[nH]c(C(=O)N3CC4CC45C3=CC(=O)c3[nH]cc(C)c35)cc2c1 (stereo not drawn) [U-67,786]
- IC50 (murine L1210 tumor cells): 0.046 ng/mL (≈ 0.123 nM)
- IC90 (murine L1210 tumor cells): 0.1 ng/mL (≈ 0.268 nM)

SMILES: Cc1c[nH]c2c1C13CC1CN(C(=O)c1cc4cc(NC(=O)c5cc6ccccc6[nH]5)ccc4[nH]1)C3=CC2=O (stereo not drawn) [U-68,415]
- IC50 (murine L1210 tumor cells): 0.018 ng/mL (≈ 0.0359 nM)
- IC90 (murine L1210 tumor cells): 0.044 ng/mL (≈ 0.0877 nM)
- P388 cures (P388 leukemia; at 0.05 mg./kg.): 4/6

SMILES: Cc1c[nH]c2c1C13CC1CN(C(=O)c1ccc4ccccc4n1)C3=CC2=O (stereo not drawn) [U-68,749, 1,2,8,8a-tetrahydro-7-methyl-2-(quinolinylcarbonyl)cyclopropa[c]pyrrolo[3,2-e]indol-4(5H)-one]
- IC50 (murine L1210 tumor cells): 3.4 ng/mL (≈ 9.57 nM)
- IC90 (murine L1210 tumor cells): 8.4 ng/mL (≈ 23.6 nM)

SMILES: Cc1c[nH]c2c1C13CC1CN(C(=O)c1ccc[nH]1)C3=CC2=O (stereo not drawn) [U-68,819, 1,2,8,8a-tetrahydro-7-methyl-2-(2-pyrrolylcarbonyl)cyclopropa[c]pyrrolo[3,2-e]indol-4(5H)-one]
- IC50 (murine L1210 tumor cells): 0.48 ng/mL (≈ 1.64 nM)
- IC90 (murine L1210 tumor cells): 1.5 ng/mL (≈ 5.11 nM)
- ILS at 1 mg/kg (P388 leukemia; Mus musculus, P388, ip, at 1 mg./kg., read-out: P388 % ILS (percent increase in life span over controls)): 71%

SMILES: Cc1c[nH]c2c1C13CC1CN(C(=O)c1cc4cc(NC(=O)c5ccccc5)ccc4[nH]1)C3=CC2=O (stereo not drawn) [U-68,846, 1,2,8,8a-tetrahydro-7-methyl-2-[[5-benzoylamino-1H-indol-2-yl]carbonyl]cyclopropa[c]pyrrolo[3,2-e]indol-4(5H)-one]
- IC50 (murine L1210 tumor cells): 0.034 ng/mL (≈ 0.0735 nM)
- IC90 (murine L1210 tumor cells): 0.096 ng/mL (≈ 0.208 nM)
- ILS at 0.05 mg/kg (P388 leukemia; Mus musculus, P388, ip, at 0.05 mg./kg., read-out: P388 % ILS (percent increase in life span over controls)): 82%

SMILES: Cc1c[nH]c2c1C13CC1CN(C(=O)c1cc4cc(NC(=O)c5cc6cc(NC(=O)c7ccccc7)ccc6[nH]5)ccc4[nH]1)C3=CC2=O (stereo not drawn) [U-68,880]
- IC50 (murine L1210 tumor cells): 0.008 ng/mL (≈ 0.0129 nM)
- IC90 (murine L1210 tumor cells): 0.019 ng/mL (≈ 0.0306 nM)
- ILS at 0.1 mg/kg (P388 leukemia; [6]): 71%

SMILES: Cc1c[nH]c2c1C13CC1CN(C(=O)c1cc4cc(NC#N)ccc4[nH]1)C3=CC2=O (stereo not drawn) [U-69,058, (1,2,8,8a)-tetrahydro-7-methyl-2-2[[5-cyanoamino-1H-indol-2-yl]carbonyl]cyclopropa[c]pyrrolo[3,2-e]indol-4(5H)-one]
- ILS at 0.5 mg/kg (P388 leukemia; Mus musculus, P388, ip, at 0.50 mg./kg., read-out: P388 % ILS (percent increase in life span over controls)): 96%

SMILES: Cc1c[nH]c2c1C13CC1CN(C(=O)c1cc4cc(NC(N)=O)ccc4[nH]1)C3=CC2=O (stereo not drawn) [U-69,059, 1,2,8,8a-tetrahydro-7-methyl-2-[[5-ureido-1H-indol-2-yl]carbonyl]cyclopropa[c]pyrrolo[3,2-e]indol-4(5H)-one]
- P388 cures (P388 leukemia; at 0.5 mg./kg.): 4/6

SMILES: Cc1c[nH]c2c1C13CC1CN(C(=O)c1cc4cc(NC(=O)c5cc6cc(NC(N)=O)ccc6[nH]5)ccc4[nH]1)C3=CC2=O (stereo not drawn) [U-69,060, 1,2,8,8a-tetrahydro-7-methyl-2-[[5-[[[5-ureido-1H-indol-2-yl]carbonyl]amino]-1H-indol-2-yl]carbonyl]cyclopropa[c]pyrrolo[3,2-a]indol-4(5H)-one]
- ILS at 0.1 mg/kg (P388 leukemia; [6]): 138%

SMILES: Cc1c[nH]c2c1[C@@]13C[C@@H]1CN(C(=O)c1cc4cc(NC(=O)c5cc6ccccc6o5)ccc4[nH]1)C3=CC2=O [U-73,975]
- lifespan of mice implanted with M5076 ovarian sarcoma (M5076 ovarian sarcoma): significantly increased the lifespan
- activity against solid tumors (solid tumors): particularly good activity against solid tumors
- stability in aqueous solution [3]: good solubility and stability characteristics in aqueous solution
- activity against Escherichia coli (Escherichia coli): has activity against
- increase in life span over control (non-drug treated) animals (B16 melanoma): 61%
- activity against Staphylococcus aureus (Staphylococcus aureus): has activity against
- lifespan of mice implanted with Lewis carcinoma (Lewis carcinoma): significantly increased the lifespan
- growth inhibition of human lung tumor (Lx-1 carcinoma) xenograft [4]: significantly inhibited the growth
- solubility in aqueous solution [5]: good solubility
- activity against Klebsiella pneumonia (Klebsiella pneumonia): has activity against
